Like-named read-outs stand apart in the source and are kept apart here.
Experiments:
[1] = Hydrodistillation of lemon essential oil doped with pyrrolizidine alkaloids; alkaloids assayed in distillate and aqueous phase by UPLC-HRMS/TOF; assay type: physicochemical; settings: for φ Aqueuse (résidu de distillation) CT [ppm]: Concentration théorique; for φ Aqueuse (résidu de distillation) C [ppm] / φ Organique (distillat) C [ppm]: after 2 h hydrodistillation; for φ Organique (distillat) C [ppm]: LOQ : 2 ppb
Description: (§1) Dans un ballon de 500 mL, on introduit 300 mL d'eau distillée, un barreau magnétique, quelques pierres ponces et une quantité pesée d'échantillon entre 15 et 30 g.
(§2) Le ballon est alors raccordé à un appareil de type Clevenger et placé dans un bain d'huile chauffant.
(§3) On ajoute 10 mL d'eau distillée et 4 à 5 mL de pentane afin de remplir le séparateur.
(§4) On ouvre l'arrivée d'eau pour le réfrigérant et on porte à reflux pendant deux heures.
(§5) On arrête alors le chauffage et on laisse décanter. La phase organique et la phase aqueuse décantent dans le séparateur et sont recueillies.
(§6) […]. Conditions HR-TOF-MS : Les analyses ont été effectuées sur un système Waters XEVO G2 TOF. Conditions de source ESI : tension capillaire : 0,5 kV, tension de cône : 45 V, cône d'extraction : 4 V, température de source : 120 °C, température de désolvatation : 400 °C, débit de gaz : 10 L/h, débit de gaz de désolvatation : 1200 L/h. Les analyses ont été effectuées en mode positif. Le spectromètre de masse a été étalonné avec du formiate de sodium pour une gamme de masse allant de 50 à 1200 Da. La Leucine-Enképhaline (lockmass) est le standard utilisé pour corriger les masses. Les deux masses caractéristiques de la Leucine-Enképhaline ont été vérifiées (278,1141; 556,2771). Les acquisitions ont été réalisées en mode MSE en utilisant l'argon comme gaz de collision. Fragmentation : Le mode MSE permet l'acquisition simultanée de spectres de masse à l'énergie de collision faible et élevée, le premier permettant d'obtenir un ion parent, le dernier de produire des ions fragments.
(§7) Après dilution des extraits d'huile essentielle dans du méthanol, les alcaloïdes pyrrolizidiniques sont chromatographiés par système RP-UPLC, en mode gradient d'élution, détectés et identifiés par spectrométrie de masse et quantifiés par une méthode d'étalonnage externe.
Des solutions standards d'alcaloïdes pyrrolizidiniques sont préparées comme suit : Dans une fiole jaugée de 100 mL (Vf), on pèse exactement 10 mg (Ms) des substances étalons et on ajuste avec du méthanol. Les solutions sont homogénéisées avec un bain à ultrasons pendant 3 min.
La concentration de la solution standard est donnée par l'équation suivante : C (mg/mL) = (Ms×Pu)/(100×Vf) [formula] • Ms = Poids de la substance standard • Pu = Pureté de la substance étalon en pourcentage
Ensuite, cette solution mère est diluée jusqu'à obtenir les concentrations appropriées pour la sensibilité du détecteur.
(§8) Dans une fiole jaugée de 20 mL, on pèse exactement 1 g (Pe) de l'échantillon et on ajuste avec du méthanol. La solution est homogénéisée pendant 3 min avec un bain à ultrasons, puis filtrée à l'aide d'une seringue sur un filtre en PTFE de 0,25 µm, puis transférée dans un flacon d'injection.
Si nécessaire, cette solution doit être successivement diluée pour tomber dans une plage de linéarité appropriée du détecteur.
(§9) Trois huiles essentielles de citron, d'orange et d'eucalyptus, dopées jusqu'à 100 ppm de chacun des alcaloïdes pyrrolizidiniques et de leurs oxydes respectifs, ont été hydrodistillées séparément pendant deux heures selon le protocole décrit à l'exemple 1. L'expérimentation est réalisée en duplicat.
(§10) Avant et après hydrodistillation, les phases organique et aqueuse sont séparées et injectées en UPLC-HRMS/TOF.

[2] = Presence or absence of pyrrolizidine alkaloid signals (UPLC-HRMS) in doped lemon, orange and eucalyptus essential oils after hydrodistillation; assay type: physicochemical; settings: for profils UPLC-MS ciblés: presence in huile essentielle avec standards et distillée: huile essentielle de citron, likewise essences d'orange et d'eucalyptus (figure 1, figure 2); for signaux dans la phase organique recueillie après hydrodistillation: huiles essentielles de citron, d'orange et d'eucalyptus dopées jusqu'à 100 ppm, 2 h hydrodistillation, UPLC-HRMS/TOF
Description: as §1, §2, §3, §4, §5, §6, §7, §8
Afin de démontrer le principe de l'invention, une étude quantitative destinée à montrer la présence ou l'absence d'alcaloïdes pyrrolizidiniques dans des échantillons d'huile essentielle enrichis en alcaloïdes pyrrolizidiniques a été réalisée avant et après hydrodistillation.
Dans cette étude, on a utilisé des alcaloïdes pyrrolizidiniques disponibles commercialement et représentant deux classes précédemment décrites de type II et IV, à savoir : alcaloïde type cyclique (classe la plus représentée) pour la sénécionine, sénécionine-N-oxyde [13268-67-2], rétrorsine, rétrorsine-N-oxyde [15503-86-3], jacobine [3870-67-3], jacobine-N-oxyde [38710-25-7], sénéciphylline, sénéciphylline-N-oxyde [38710-26-8], et alcaloïde type mono-ester pour la lycopsamine [10285-07-1], lycopsamine-N-oxyde [95462-15-0], intermédine [10285-06-0], intermédine-N-oxyde [95462-14-9].
as §9, §10

rat = settings: cited from earlier work
[3] = Tableau 3, Huile essentielle de Citron dopée, (duplicate 2)
[4] = Tableau 3, Huile essentielle de Citron dopée, duplicate 1
[5] = Tableau 4, Huile essentielle de Citron dopée (as titled), (duplicate 2)
[6] = Tableau 4, Huile essentielle de Citron dopée (as titled), duplicate 1
[7] = administrés régulièrement par voie orale

C/C=C1/C[C@@H](C)[C@](O)(CO)C(=O)OCC2=CC[N@@+]3([O-])CC[C@@H](OC1=O)[C@@H]23 [Rétrorsine-N-oxyde]
φ Aqueuse (résidu de distillation) CT [ppm] [1, 3]: 0,621 ppm | φ Aqueuse (résidu de distillation) CT [ppm] [1, 4]: 0,662 ppm | φ Aqueuse (résidu de distillation) C [ppm] [1, 3]: 0,605 ppm | φ Organique (distillat) C [ppm] [1, 3]: < LoQ | φ Aqueuse (résidu de distillation) C [ppm] [1, 4]: 0,691 ppm | φ Organique (distillat) C [ppm] [1, 4]: < LoQ | φ Aqueuse (résidu de distillation) CT [ppm] [1, 5]: 0.593 ppm | φ Aqueuse (résidu de distillation) CT [ppm] [1, 6]: 0.457 ppm | φ Aqueuse (résidu de distillation) C [ppm] [1, 5]: 0.612 ppm | φ Organique (distillat) C [ppm] [1, 5]: < LoQ | φ Aqueuse (résidu de distillation) C [ppm] [1, 6]: 0.678 ppm | φ Organique (distillat) C [ppm] [1, 6]: < LoQ | profils UPLC-MS ciblés: presence in huile essentielle avec standards et distillée [2]: absentes | signaux dans la phase organique recueillie après hydrodistillation [2]: absence des signaux

C/C=C1\C[C@@H](C)[C@](O)(CO)C(=O)OCC2=CCN3CC[C@@H](OC1=O)[C@@H]23 [Rétrorsine]
φ Aqueuse (résidu de distillation) CT [ppm] [1, 3]: 0,868 ppm | φ Aqueuse (résidu de distillation) CT [ppm] [1, 4]: 0,806 ppm | φ Aqueuse (résidu de distillation) C [ppm] [1, 3]: 0,839 ppm | φ Organique (distillat) C [ppm] [1, 3]: < LoQ | φ Aqueuse (résidu de distillation) C [ppm] [1, 4]: 0,810 ppm | φ Organique (distillat) C [ppm] [1, 4]: < LoQ | φ Aqueuse (résidu de distillation) CT [ppm] [1, 5]: 0.828 ppm | φ Aqueuse (résidu de distillation) CT [ppm] [1, 6]: 0.797 ppm | φ Aqueuse (résidu de distillation) C [ppm] [1, 5]: 0.711 ppm | φ Organique (distillat) C [ppm] [1, 5]: < LoQ | φ Aqueuse (résidu de distillation) C [ppm] [1, 6]: 0.663 ppm | φ Organique (distillat) C [ppm] [1, 6]: < LoQ | profils UPLC-MS ciblés: presence in huile essentielle avec standards et distillée [2]: absentes | signaux dans la phase organique recueillie après hydrodistillation [2]: absence des signaux | tumeurs hépatiques (rat; [7]): provoquer des tumeurs hépatiques

C[C@H]1C(=O)O[C@@H]2CCN3CC=C(COC(=O)[C@](C)(O)[C@]1(C)O)[C@H]23 [monocrotaline]
tumeurs hépatiques (rat; in vivo): provoquer des tumeurs hépatiques

C[C@@H]1C[C@@]2(O[C@H]2C)C(=O)O[C@@H]2CCN3CC=C(COC(=O)[C@]1(C)O)[C@H]23 [jacobine]
signaux dans la phase organique recueillie après hydrodistillation [2]: absence des signaux

C/C=C1/C[C@@H](C)[C@@](C)(O)C(=O)OCC2=CCN3CC[C@@H](OC1=O)[C@@H]23 [sénécionine]
signaux dans la phase organique recueillie après hydrodistillation [2]: absence des signaux

C=C1C/C(=C/C)C(=O)O[C@@H]2CCN3CC=C(COC(=O)[C@]1(C)O)[C@H]23 [séneciphylline, sénéciphylline]
signaux dans la phase organique recueillie après hydrodistillation [2]: absence des signaux

CC(C)[C@@](O)(C(=O)OCC1=CC[N+]2([O-])CC[C@@H](O)[C@@H]12)[C@@H](C)O (stereo partly drawn) [intermédine-N-oxyde]
signaux dans la phase organique recueillie après hydrodistillation [2]: absence des signaux

C/C=C1/C[C@@H](C)[C@@](C)(O)C(=O)OCC2=CC[N+]3([O-])CC[C@@H](OC1=O)[C@@H]23 (stereo partly drawn) [sénécionine-N-oxyde]
signaux dans la phase organique recueillie après hydrodistillation [2]: absence des signaux

C[C@@H]1C[C@@]2(O[C@H]2C)C(=O)O[C@@H]2CC[N+]3([O-])CC=C(COC(=O)[C@]1(C)O)[C@H]23 (stereo partly drawn) [jacobine-N-oxyde]
signaux dans la phase organique recueillie après hydrodistillation [2]: absence des signaux

C=C1C/C(=C/C)C(=O)O[C@@H]2CC[N+]3([O-])CC=C(COC(=O)[C@]1(C)O)[C@H]23 (stereo partly drawn) [séneciphylline-N-oxyde, sénéciphylline-N-oxyde]
signaux dans la phase organique recueillie après hydrodistillation [2]: absence des signaux

CC(C)[C@@](O)(C(=O)OCC1=CC[N+]2([O-])CC[C@@H](O)[C@@H]12)[C@H](C)O (stereo partly drawn) [Lycopsamine-N-oxyde]
φ Aqueuse (résidu de distillation) CT [ppm] [1, 5]: 0.030 ppm | φ Aqueuse (résidu de distillation) CT [ppm] [1, 6]: 0.028 ppm | φ Aqueuse (résidu de distillation) C [ppm] [1, 5]: 0.027 ppm | φ Organique (distillat) C [ppm] [1, 5]: < LoQ | φ Aqueuse (résidu de distillation) C [ppm] [1, 6]: 0.024 ppm | φ Organique (distillat) C [ppm] [1, 6]: < LoQ | signaux dans la phase organique recueillie après hydrodistillation [2]: absence des signaux

CC(C)[C@](O)(C(=O)OCC1=CCN2CC[C@@H](O)[C@@H]12)[C@@H](C)O (stereo in doubt) [Lycopsamine]
φ Aqueuse (résidu de distillation) CT [ppm] [1, 3]: 0,626 ppm | φ Aqueuse (résidu de distillation) CT [ppm] [1, 4]: 0,656 ppm | φ Aqueuse (résidu de distillation) C [ppm] [1, 3]: 0,698 ppm | φ Organique (distillat) C [ppm] [1, 3]: < LoQ | φ Aqueuse (résidu de distillation) C [ppm] [1, 4]: 0,678 ppm | φ Organique (distillat) C [ppm] [1, 4]: < LoQ | φ Aqueuse (résidu de distillation) CT [ppm] [1, 5]: 0.597 ppm | φ Aqueuse (résidu de distillation) CT [ppm] [1, 6]: 0.550 ppm | φ Aqueuse (résidu de distillation) C [ppm] [1, 5]: 0.621 ppm | φ Organique (distillat) C [ppm] [1, 5]: < LoQ | φ Aqueuse (résidu de distillation) C [ppm] [1, 6]: 0.588 ppm | φ Organique (distillat) C [ppm] [1, 6]: < LoQ | profils UPLC-MS ciblés: presence in huile essentielle avec standards et distillée [2]: absentes | signaux dans la phase organique recueillie après hydrodistillation [2]: absence des signaux

C/C=C1/C[C@@H](C)[C@@](C)(O)C(=O)OC/C2=C/CN(C)CC[C@@H](OC1=O)C2=O [senkirkine]
tumeurs hépatiques (rat; [7]): provoquer des tumeurs hépatiques

C/C=C(\C)C(=O)O[C@@H]1CCN2CC=C(COC(=O)[C@](O)(C(C)C)[C@H](C)O)[C@H]12 [symphytine]
tumeurs hépatiques (rat; [7]): provoquer des tumeurs hépatiques
